Reference: article PMC10734772 (Turkish Journal of Chemistry, 2021)

For `Cc1ccnc(Nc2cc(NC(=O)c3ccc(CN4CCOCC4)cc3)ccc2C)c1` [Compound 9, N-(4-Methyl-3-((4-methylpyridin-2-yl)amino)phenyl)-4-(morhpolinomethyl)benzamide], the melting point was 155 to 157 °C.
In the case of `COc1ccc(CN2CCN(Cc3ccc(C(=O)Nc4ccc(C)c(Nc5cc(C)ccn5)c4)cc3)CC2)c(OC)c1OC` [Compound 10, N-(4-Methyl-3-((4-methylpyridin-2-yl)amino)phenyl)-4-((4-(2,3,4-trimethoxybenzyl)piperazin-1-yl)methyl)benzamide], the melting point is reported as 87 °C.
For `Cc1ccnc(Nc2cc(NC(=O)c3ccc(CN4CCN(c5ncccn5)CC4)cc3)ccc2C)n1` [Compound 5, N-(4-Methyl-3-((4-methylpyrimidin-2-yl)amino)phenyl)-4-((4-(pyrimidin-2-yl)piperazin-1-yl)methyl)benzamide], the melting point was 89 °C.
`Cc1ccc(NC(=O)c2ccc(CN3CCN(c4ncccn4)CC3)cc2)cc1Nc1cnccn1` [Compound 7, N-(4-Methyl-3-(pyrazin-2-ylamino)phenyl)-4-((4-(pyrimidin-2-yl)piperazin-1-yl)methyl)benzamide] showed a melting point of 143 °C.
`Cc1ccnc(Nc2cc(NC(=O)c3ccc(CN4CCOCC4)cc3)ccc2C)n1` [Compound 8, N-(4-Methyl-3-((4-methylpyrimidin-2-yl)amino)phenyl)-4-(morhpolinomethyl)benzamide] gave a melting point of 157 °C.
